We go through 31 compounds from ChEMBL document CHEMBL1130774, “Pyrazoles, 1,2,4-triazoles, and tetrazoles as surrogates for cis-amide bonds in boronate ester thrombin inhibitors” (Bioorg Med Chem Lett, 1998).

SMILES strings stand for the structures.

In one assay the target is Serine protease 1 (Homo sapiens, UniProt P07477). In words: Inhibition of trypsin.
A further assay concerns the target T1, Coagulation factor VII (Homo sapiens, UniProt P08709).
T1 sequence (P08709 whole entry): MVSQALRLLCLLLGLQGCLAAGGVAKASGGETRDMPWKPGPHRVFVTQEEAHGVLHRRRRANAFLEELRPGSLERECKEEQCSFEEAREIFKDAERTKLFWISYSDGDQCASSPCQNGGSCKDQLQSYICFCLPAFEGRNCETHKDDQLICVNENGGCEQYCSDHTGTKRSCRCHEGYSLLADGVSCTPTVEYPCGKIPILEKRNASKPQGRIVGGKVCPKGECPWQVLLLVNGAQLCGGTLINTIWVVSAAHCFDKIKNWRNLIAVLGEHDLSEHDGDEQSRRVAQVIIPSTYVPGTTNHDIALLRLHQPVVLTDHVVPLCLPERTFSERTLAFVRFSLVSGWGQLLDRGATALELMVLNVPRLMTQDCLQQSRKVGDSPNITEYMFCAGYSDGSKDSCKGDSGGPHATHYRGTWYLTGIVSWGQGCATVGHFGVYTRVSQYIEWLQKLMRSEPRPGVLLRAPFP
The assay can be described thus: Inhibition against human Coagulation factor VII.

Assay [1] has as its target T2, Prothrombin (Homo sapiens, UniProt P00734). The assay can be described thus: Inhibition against human thrombin.
Assay [2] can be described thus: Compound was tested for inhibition against tissue factor.
Another assay has as its target Coagulation factor X (Homo sapiens, UniProt P00742). In words: Inhibition against human coagulation factor Xa.
Assay [3] in a line: (§1) Concentration necessary to double the time required for clot formation induced by the addition of 4 NIH u/mL (final concentration) bovine thrombin. The assay is classed as functional.
The target in assay [4] is T2, Prothrombin. In words: Concentration necessary to double the time required for clot formation induced by the addition of 4 NIH u/mL(final concentration) bovine thrombin. The assay is classed as functional.
Assay [5] in a line: Compound was tested for inhibition against Coagulation factor I.
Assay [6] concerns the target T2, Prothrombin. The assay is described as §1. The assay is classed as functional.

Coagulation factor X, sequence (P00742 41-179 limits assumed): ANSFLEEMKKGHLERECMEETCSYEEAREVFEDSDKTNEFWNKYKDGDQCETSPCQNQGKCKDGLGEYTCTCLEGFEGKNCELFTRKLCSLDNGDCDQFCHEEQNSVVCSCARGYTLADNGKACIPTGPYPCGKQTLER
Coagulation factor X, sequence (P00742 235-488 limits assumed): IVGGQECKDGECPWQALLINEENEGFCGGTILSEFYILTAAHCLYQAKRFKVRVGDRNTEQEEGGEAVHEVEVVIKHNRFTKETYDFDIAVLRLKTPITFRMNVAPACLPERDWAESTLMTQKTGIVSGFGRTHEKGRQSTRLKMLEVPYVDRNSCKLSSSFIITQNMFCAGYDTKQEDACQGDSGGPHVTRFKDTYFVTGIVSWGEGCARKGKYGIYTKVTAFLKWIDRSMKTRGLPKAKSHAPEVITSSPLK
Serine protease 1, sequence (P07477 whole entry): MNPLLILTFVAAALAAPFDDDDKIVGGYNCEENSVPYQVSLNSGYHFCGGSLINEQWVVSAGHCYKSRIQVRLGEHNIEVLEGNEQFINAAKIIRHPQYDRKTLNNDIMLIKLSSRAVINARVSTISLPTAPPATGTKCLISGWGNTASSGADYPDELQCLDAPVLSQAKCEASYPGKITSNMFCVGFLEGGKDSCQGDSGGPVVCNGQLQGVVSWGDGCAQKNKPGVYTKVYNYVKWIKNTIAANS

One may read the Ki as the equilibrium dissociation constant of an inhibitor or competing ligand from its target. Consider `CC1(C)[C@@H]2C[C@H]3OB([C@H](CCCCN)NC(=O)Cn4nc(CNS(=O)(=O)C(F)(F)F)nc4Cc4ccccc4)O[C@@]3(C)[C@H]1C2`, for which the Ki was above 1200 nM on Serine protease 1; above 3 µM at Coagulation factor VII; 210 nM on Prothrombin [1]; 3700 nM in assay [2]; above 6 µM at Coagulation factor X.
As for `CC1(C)[C@@H]2C[C@H]3OB([C@H](CCCCN)NC(=O)Cn4nc(CO)nc4Cc4ccccc4)O[C@@]3(C)[C@H]1C2`, the Ki at Coagulation factor VII was 7.7 µM; on Prothrombin [1], 84 nM; on Coagulation factor X, above 6 µM.
For `CC1(C)[C@@H]2C[C@H]3OB([C@H](CCCCN)NC(=O)Cn4ncnc4Cc4ccccc4)O[C@@]3(C)[C@H]1C2`, the values for the Ki (in assay [3]; at Prothrombin [1]) were 2500 nM and 31 nM, respectively.
Take `CC1(C)[C@@H]2C[C@H]3OB([C@H](CCCCN)NC(=O)Cn4nc(-c5ccccc5)nc4Cc4ccccc4)O[C@@]3(C)[C@H]1C2`: affinity on Prothrombin [1] was put at a Ki of 173 nM.
Consider `CC1(C)[C@@H]2C[C@H]3OB([C@H](CCCCN)NC(=O)Cn4nc(COCc5ccccc5)nc4Cc4ccccc4)O[C@@]3(C)[C@H]1C2`, for which the inhibition constant (Ki) on Coagulation factor VII was 1.5 µM; at Prothrombin [1], 8.7 nM; at Prothrombin [4], 1.3 µM; at Coagulation factor X, 1.6 µM.
For `CC(C)(C)OC(=O)/C=C/c1nc(Cc2ccccc2)n(CC(=O)N[C@@H](CCCCN)B2O[C@@H]3C[C@@H]4C[C@@H](C4(C)C)[C@]3(C)O2)n1`, the inhibitory constant (Ki) on Serine protease 1 was 36 nM; on Coagulation factor VII, 2.7 µM; at Prothrombin [1], 150 nM; in assay [2], 2800 nM; on Coagulation factor X, above 6 µM.
As for `CC(C)C(=O)NCc1nc(Cc2ccccc2)n(CC(=O)N[C@@H](CCCCN)B2O[C@@H]3C[C@@H]4C[C@@H](C4(C)C)[C@]3(C)O2)n1`, the Ki was 9.6 nM at Serine protease 1, above 3 µM on Coagulation factor VII, 160 nM on Prothrombin [1] and above 6 µM at Coagulation factor X.
With `CC1(C)[C@@H]2C[C@H]3OB([C@H](CCCCN)NC(=O)Cn4nc(-c5cccc([N+](=O)[O-])c5)nc4Cc4ccccc4)O[C@@]3(C)[C@H]1C2`, the inhibitory constant (Ki) on Coagulation factor VII was 2.6 µM; on Prothrombin [1], 85 nM; on Coagulation factor X, 4.2 µM.
Take `CC1(C)[C@@H]2C[C@H]3OB([C@H](CCCCN)NC(=O)Cn4nc(-c5cccc(N)c5)nc4Cc4ccccc4)O[C@@]3(C)[C@H]1C2`: the inhibition constant Ki at Serine protease 1 is 4.2 nM; on Coagulation factor VII it was 1.4 µM; on Prothrombin [1], 150 nM; at Coagulation factor X, above 6 µM.
Take `Cc1nc(Cc2ccccc2)n(CC(=O)N[C@@H](CCCCN)B2O[C@@H]3C[C@@H]4C[C@@H](C4(C)C)[C@]3(C)O2)n1`: the inhibition constant Ki was 7.16 µM at Coagulation factor VII, 8.6 nM on Prothrombin [1], 6 µM at Prothrombin [4] and above 6 µM at Coagulation factor X.
With `CSCc1nc(Cc2ccccc2)n(CC(=O)N[C@@H](CCCCN)B2O[C@@H]3C[C@@H]4C[C@@H](C4(C)C)[C@]3(C)O2)n1`, the Ki at Serine protease 1 was 1.9 nM; at Coagulation factor VII, 2.5 µM; on Prothrombin [1], 65 nM; at Prothrombin [4], 4.5 µM; on Coagulation factor X, above 6 µM.
Regarding `CC1(C)[C@@H]2C[C@H]3OB([C@H](CCCCN)NC(=O)Cn4nc(CC#N)cc4CCc4ccccc4)O[C@@]3(C)[C@H]1C2`, the inhibitory constant (Ki) in assay [5] is 13 µM; on Serine protease 1, 35 nM; at Prothrombin [1] it was 4.6 nM; at Coagulation factor X, above 6 µM.
In turn, `CC1(C)[C@@H]2C[C@H]3OB([C@H](CCCCN)NC(=O)Cn4nc(Cc5nn[nH]n5)nc4Cc4ccccc4)O[C@@]3(C)[C@H]1C2` showed a Ki on Prothrombin [1] of 350 nM.
With `CC(C)(C)OC(=O)CCc1nc(Cc2ccccc2)n(CC(=O)N[C@@H](CCCCN)B2O[C@@H]3C[C@@H]4C[C@@H](C4(C)C)[C@]3(C)O2)n1`, the Ki on Serine protease 1 was 1.4 nM; on Coagulation factor VII it was above 3 µM; at Prothrombin [1], 5.5 nM; in [2], 670 nM; on Coagulation factor X it was 0.76 µM.
For `CC1(C)[C@@H]2C[C@H]3OB([C@H](CCCCN)NC(=O)Cn4nc(CS(C)(=O)=O)nc4Cc4ccccc4)O[C@@]3(C)[C@H]1C2`, in that order: 2.1 nM, 1.9 µM, 11 nM, 2700 nM and above 6 µM.
`CC1(C)[C@@H]2C[C@H]3OB([C@H](CCCCN)NC(=O)Cn4nnnc4CCc4ccccc4)O[C@@]3(C)[C@H]1C2` registered a Ki on Prothrombin [1] of 33 nM.
Regarding `CC1(C)[C@@H]2C[C@H]3OB([C@H](CCCCN)NC(=O)Cn4nc(CCC(=O)O)nc4Cc4ccccc4)O[C@@]3(C)[C@H]1C2`, the inhibitory constant (Ki) on Serine protease 1 is 7.1 nM; on Coagulation factor VII, above 3 µM; on Prothrombin [1], 230 nM; in assay [2], above 10000 nM; on Coagulation factor X, above 6 µM.
Take `CC1(C)[C@@H]2C[C@H]3OB([C@H](CCCCN)NC(=O)Cn4nc(Cc5ccccc5)nc4Cc4ccccc4)O[C@@]3(C)[C@H]1C2`: the Ki on Coagulation factor VII is 3.94 µM; on Prothrombin [1], 41 nM; at Coagulation factor X, above 6 µM.
On to `CCCc1nc(Cc2ccccc2)n(CC(=O)N[C@@H](CCCCN)B2O[C@@H]3C[C@@H]4C[C@@H](C4(C)C)[C@]3(C)O2)n1`, for which the Ki on Serine protease 1 is 2.3 nM; on Coagulation factor VII, 2.4 µM; on Prothrombin [1], 73 nM; on Coagulation factor X, above 6 µM.
Take `CC1(C)[C@@H]2C[C@H]3OB([C@H](CCCCN)NC(=O)Cn4nc(CC#N)nc4Cc4cccc([N+](=O)[O-])c4)O[C@@]3(C)[C@H]1C2`: the Ki in [5] was 1.9 µM; on Serine protease 1 it was 23 nM; on Coagulation factor VII it was above 3 µM; on Prothrombin [1] it was 1.8 nM; on Coagulation factor X, above 6 µM.
For the compound `CC1(C)[C@@H]2C[C@H]3OB([C@H](CCCCN)NC(=O)Cn4nc(CC(=O)O)nc4Cc4ccccc4)O[C@@]3(C)[C@H]1C2`, the Ki at Coagulation factor VII was above 14 µM; on Prothrombin [1], 1700 nM; at Coagulation factor X it was above 6 µM.
As to `CC1(C)[C@@H]2C[C@H]3OB([C@H](CCCCN)NC(=O)Cn4nc(CC#N)nc4Cc4ccccc4[N+](=O)[O-])O[C@@]3(C)[C@H]1C2`, the inhibition constant Ki in [5] turned out to be 2 µM; at Serine protease 1, 8.4 nM; on Coagulation factor VII, 3 µM; at Prothrombin [1], 0.8 nM; on Coagulation factor X it was 4.9 µM.
For `CC1(C)[C@@H]2C[C@H]3OB([C@H](CCCCN)NC(=O)Cn4nc(CC#N)nc4CCc4ccccc4)O[C@@]3(C)[C@H]1C2`, in that order: 6.8 µM, 12 nM, above 3 µM, 2.6 nM and above 6 µM.
Consider `CC(C)(C)CC(=O)NCc1nc(Cc2ccccc2)n(CC(=O)N[C@@H](CCCCN)B2O[C@@H]3C[C@@H]4C[C@@H](C4(C)C)[C@]3(C)O2)n1`, for which the Ki at Serine protease 1 is 2.7 nM; at Coagulation factor VII, above 3 µM; on Prothrombin [1], 33 nM; in assay [2], 1490 nM; at Coagulation factor X, 4.3 µM.
For `C[S+]([O-])Cc1nc(Cc2ccccc2)n(CC(=O)N[C@@H](CCCCN)B2O[C@@H]3C[C@@H]4C[C@@H](C4(C)C)[C@]3(C)O2)n1` (some centres not stated), in that order: 4.8 nM, 2.1 µM, 47 nM, 3600 nM and 6 µM.
Compound `CC1(C)[C@@H]2C[C@H]3OB([C@H](CCCCN)NC(=O)Cn4ncnc4CCCc4ccccc4)O[C@@]3(C)[C@H]1C2` showed a Ki on Prothrombin [1] above 42 nM.
Take `COC(=O)Cc1nc(Cc2ccccc2)n(CC(=O)N[C@@H](CCCCN)B2O[C@@H]3C[C@@H]4C[C@@H](C4(C)C)[C@]3(C)O2)n1`: the Ki at Coagulation factor VII is 14 µM; at Prothrombin [1] it was 85 nM; on Coagulation factor X, above 6 µM.
For `CC1(C)[C@@H]2C[C@H]3OB([C@H](CCCCN)NC(=O)Cn4ncnc4CCc4ccccc4)O[C@@]3(C)[C@H]1C2`, the Ki at Prothrombin [1] was 36 nM.
As for `CC1(C)[C@@H]2C[C@H]3OB([C@H](CCCCN)NC(=O)Cn4nc(CNC=O)nc4Cc4ccccc4)O[C@@]3(C)[C@H]1C2`, the inhibition constant (Ki) is 6.6 nM at Serine protease 1; 2.2 µM on Coagulation factor VII; 33 nM on Prothrombin [1]; 2700 nM in assay [2]; above 6 µM at Coagulation factor X.
Consider `CC1(C)[C@@H]2C[C@H]3OB([C@H](CCCCN)NC(=O)Cn4nc(CC#N)nc4Cc4ccccc4)O[C@@]3(C)[C@H]1C2`, for which the Ki is 500 nM at Prothrombin [6]; 5.6 nM at Serine protease 1; 4.2 µM on Coagulation factor VII; 3.5 nM at Prothrombin [1]; above 6 µM at Coagulation factor X.
For the compound `CN(CC(=O)N[C@@H](CCCSC(=N)N)B(O)O)C(=O)CCc1ccccc1`, at Prothrombin [1], the Ki was 0.3 nM.
